The source of these data is BindingDB's records for doi:10.1016/j.bmc.2020.115622 (Kyowa Kirin, 2020).

The nature of this assay: Inhibition of chemR23 expressed in human CAL1 cells assessed as reduction in chemerin-induced chemotaxis incubated for 4 hrs by cell counting based CellTiter-Glo assay.

On to `CCCCN(c1nc2c(C(=O)O)cccc2o1)[C@H](C)c1ccc(-c2cc(Cl)ccc2-c2nc(=O)o[nH]2)cc1`, for which the IC50 came out at 235 nM.
With `Cc1ccc(-c2nc(=O)o[nH]2)c(-c2ccc([C@@H](C)N(CC3CC3)c3nc4c(C(=O)O)cccc4o3)cc2)c1` the figure was 63 nM.
